Measurements reported in patent US9371304B2, “Compound separated from monascus-fermented rice,the preparation method and uses thereof” (Beijing Peking University WBL Biotech Co. Ltd, priority 2011, dated 2016).
Blank lines part the entries; values can stand above or below the molecule they belong to.

Molecular target: T1, HMG-CoA reductase (microsomes of rat liver) (Rattus norvegicus, UniProt P51639)
T1 construct: from tissue; host or cells: rat liver microsomes
T1 sequence (P51639 1-887): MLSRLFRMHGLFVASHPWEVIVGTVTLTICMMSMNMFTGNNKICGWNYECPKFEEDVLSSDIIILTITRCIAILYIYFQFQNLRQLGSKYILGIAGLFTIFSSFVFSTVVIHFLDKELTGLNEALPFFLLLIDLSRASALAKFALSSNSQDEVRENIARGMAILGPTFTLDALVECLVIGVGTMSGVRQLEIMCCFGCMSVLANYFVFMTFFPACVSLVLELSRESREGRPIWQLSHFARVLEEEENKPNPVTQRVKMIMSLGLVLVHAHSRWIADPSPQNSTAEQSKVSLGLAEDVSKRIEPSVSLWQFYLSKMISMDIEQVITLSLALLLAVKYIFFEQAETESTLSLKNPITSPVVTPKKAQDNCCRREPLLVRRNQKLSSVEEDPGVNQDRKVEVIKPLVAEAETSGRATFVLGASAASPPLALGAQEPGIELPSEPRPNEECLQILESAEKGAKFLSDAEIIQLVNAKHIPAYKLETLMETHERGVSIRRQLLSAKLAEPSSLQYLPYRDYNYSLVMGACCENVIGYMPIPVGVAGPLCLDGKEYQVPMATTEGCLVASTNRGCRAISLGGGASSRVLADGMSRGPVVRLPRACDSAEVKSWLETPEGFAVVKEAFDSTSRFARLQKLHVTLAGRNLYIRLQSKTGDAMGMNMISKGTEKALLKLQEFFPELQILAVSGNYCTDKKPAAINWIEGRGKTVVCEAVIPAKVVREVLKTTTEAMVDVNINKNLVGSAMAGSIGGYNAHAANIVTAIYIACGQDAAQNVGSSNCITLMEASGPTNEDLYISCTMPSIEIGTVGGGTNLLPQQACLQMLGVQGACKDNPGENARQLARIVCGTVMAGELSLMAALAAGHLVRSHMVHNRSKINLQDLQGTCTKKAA
Test: Test of inhibiting activity of HMG-CoA reductase (rate of decline of OD340)
Assay type: biochemical
Conditions: for Slope (rate of decline of OD340 within 5 min): blank control slope 9.971
Description: 1. Experimental Materials
The compound of Formula II prepared according to Example 1.
monacolin L (purchased or prepared according to the method of the contents of the present invention)
Standard Sample of Lovastatin (Purchased from Sigma)
Microsomes of rat liver (HMG-CoA reductase) were purchased, or prepared according to the following method: liver of a male rat was taken out, washed with KESD buffering solution, then centrifuged at 1,200 g for 15 min, the supernatant was taken out, and then centrifuged at 105,000 g for 90 min twice, and a centrifugation precipitate was collected. The centrifugation precipitate was added with 8.3% glycerol, heated with 37° C. bath for 1 h. The microsomes of rat liver were purified with saturated ammonium sulfate and the 33-50% purified fraction was collected. The obtained microsomes of rat liver were stored in refrigerator at −80° C.
Potassium chloride, potassium dihydrogen phosphate, ethylene diamine tetraacetic acid, dithiothreitol (all purchased from Beijing Chemical Reagent Co., Ltd.)
[…] (purchased from Merck) 3-hydroxy-3-methylglutaryl coenzyme A (HMG-CoA) and cremophore EL (purchased from Sigma).
The compound as prepared according to Example 1 was dissolved with 50% cremophore EL ethanol solution, and the concentration was 2 mg/mL; the total volume of the system was determined and it was 250 μL, and the concentration of each component was: potassium chloride 200 mM, potassium dihydrogen phosphate 160 mM, ethylene diamine tetraacetic acid 4 mM, dithiothreitol 10 mM, concentrations of two substrates, nicotinamide adenine dinucleotide and 3-hydroxy-3-methylglutaryl coenzyme A, 200 μM and 50 μM separately, pH6.8, addition of enzyme 30 μL, enzyme inhibitor 5 μL, blank control group 5 μL (solvent for dissolving sample). The dynamic change of OD340 was detected with Versamax ELIASA at 37° C. The rate of decline (represented with slope value) of OD340 within 5 min was used to evaluate the activity of HMG-CoA reductase, and then to evaluate the activity of enzyme inhibitor.

activity for inhibiting HMG-CoA reductase (in words) (conclusion drawn from Table 2): effective activity
Slope (rate of decline of OD340 within 5 min) (final concentration 40 μg/mL, 37° C., pH6.8): 7.344
inhibition at 40 µg/mL (pH 6.8, final concentration 40 μg/mL, 37° C., pH6.8): 26.3%
SMILES: CC1C=C2C=CC(C)C(CCC3CC=CC(=O)O3)C2CC1 (stereo not shown) [6-(2-(2,6-dimethyl-1,2,6,7,8,8a-hexahydronaphthalen-1-yl)ethyl)-5,6-dihydropyran-2-one]

Slope (rate of decline of OD340 within 5 min) (final concentration 34 μg/mL, 37° C., pH6.8): 6.022
inhibition at 34 µg/mL (pH 6.8, final concentration 34 μg/mL, 37° C., pH6.8): 39.6%
SMILES: CC[C@H](C)C(=O)O[C@H]1C[C@@H](C)C=C2C=C[C@H](C)[C@H](CC[C@@H]3C[C@@H](O)CC(=O)O3)[C@H]21 [Lovastatin]

Slope (rate of decline of OD340 within 5 min) (final concentration 30 μg/mL, 37° C., pH6.8): 7.279
inhibition at 30 µg/mL (pH 6.8, final concentration 30 μg/mL, 37° C., pH6.8): 27%
SMILES: CC1C=C2C=CC(C)C(CCC3CC(O)CC(=O)O3)C2CC1 (stereo not shown) [monacolin L]
